Assay results taken from ChEMBL document CHEMBL1201862, “PubChem BioAssay data set” (2004).
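1) Cells in 96-well plates. 2) Compound, 48 h, 5 concentrations. 3) Linear interpolation between surrounding doses. 4) Unreached endpoint = highest concentration. GI50 marks 50% less growth.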 Calls of active or inactive are those of the source. Rule as the data show it: active = GI50 up to about 1.1 µM and inactive = higher.

How the values were obtained:
Assay in all cases: NCI-60 cell line screen, 48 h
786-0 = system: 786-0
A498 = system: A498
A549 = system: A549
ACHN = system: ACHN
BT-549 = system: BT-549
CAKI-1 = system: CAKI-1
CCRF-CEM = system: CCRF-CEM
COLO 205 = system: COLO 205
DU-145 = system: DU-145
EKVX = system: EKVX
HCC 2998 = system: HCC 2998
HCT-116 = system: HCT-116
HCT-15 = system: HCT-15
HL-60 = system: HL-60
HOP-62 = system: HOP-62
HOP-92 = system: HOP-92
HT-29 = system: HT-29
Hs-578T = system: Hs-578T
IGROV-1 = system: IGROV-1
K562 = system: K562
KM12 = system: KM12
LOX IMVI = system: LOX IMVI
M14 = system: M14
MCF7 = system: MCF7
MDA-MB-231 = system: MDA-MB-231
MDA-MB-435 = system: MDA-MB-435
MDA-N = system: MDA-N
MOLT-4 = system: MOLT-4
Malme-3M = system: Malme-3M
NCI-H226 = system: NCI-H226
NCI-H23 = system: NCI-H23
NCI-H460 = system: NCI-H460
NCI-H522 = system: NCI-H522
NCI/ADR-RES = system: NCI/ADR-RES
OVCAR-3 = system: OVCAR-3
OVCAR-4 = system: OVCAR-4
OVCAR-5 = system: OVCAR-5
OVCAR-8 = system: OVCAR-8
PC-3 = system: PC-3
RPMI-8226 = system: RPMI-8226
RXF 393 = system: RXF 393
SF-268 = system: SF-268
SF-295 = system: SF-295
SF-539 = system: SF-539
SK-MEL-28 = system: SK-MEL-28
SK-MEL-2 = system: SK-MEL-2
SK-MEL-5 = system: SK-MEL-5
SK-OV-3 = system: SK-OV-3
SN12C = system: SN12C
SNB-19 = system: SNB-19
SNB-75 = system: SNB-75
SW-620 = system: SW-620
T47D = system: T47D
TK-10 = system: TK-10
U-251 = system: U-251
UACC-257 = system: UACC-257
UACC-62 = system: UACC-62
UO-31 = system: UO-31

In the case of CN(C)CCNC1=CC(=O)c2c(O)ccc(O)c2C1=O, the GI50 (786-0) is reported as 4.7 µM (inactive), the GI50 (A498) is reported as 14.8 µM (inactive) and the GI50 (A549) is reported as 10.1 µM (inactive). The GI50 (ACHN) was 11.5 µM (inactive), the GI50 (BT-549) was 14.6 µM (inactive) and the GI50 (CAKI-1) was 13.9 µM (inactive). For the same molecule, the GI50 (CCRF-CEM) was 3.94 µM (inactive), the GI50 (COLO 205) was 1.9 µM (inactive) and the GI50 (DU-145) was 13.8 µM (inactive). The GI50 (EKVX) was 12.8 µM (inactive), the GI50 (HCC 2998) was 3.88 µM (inactive) and the GI50 (HCT-116) was 2.8 µM (inactive). The GI50 (HCT-15) was 4.08 µM, the GI50 (HL-60) was 1.95 µM (inactive) and the GI50 (HOP-62) was 16.3 µM (inactive). The GI50 (HOP-92) was 14.2 µM (inactive), the GI50 (HT-29) was 2.59 µM (inactive) and the GI50 (Hs-578T) was 23.1 µM (inactive). For the same molecule, the GI50 (IGROV-1) was 6.17 µM (inactive), the GI50 (K562) was 2.52 µM (inactive) and the GI50 (KM12) was 6.35 µM (inactive). The GI50 (LOX IMVI) was 3.39 µM (inactive), the GI50 (M14) was 3.23 µM (inactive) and the GI50 (MCF7) was 2.49 µM (inactive). The GI50 (MDA-MB-231) was 11.7 µM (inactive), the GI50 (MDA-MB-435) was 1.8 µM (inactive) and the GI50 (MDA-N) was 1.97 µM (inactive). The GI50 (MOLT-4) was 5.14 µM (inactive), the GI50 (Malme-3M) was 1.25 µM (inactive) and the GI50 (NCI-H226) was 17.6 µM (inactive). For the same molecule, the GI50 (NCI-H23) was 4.98 µM (inactive), the GI50 (NCI-H460) was 3.3 µM (inactive) and the GI50 (NCI-H522) was 3.73 µM (inactive). The GI50 (NCI/ADR-RES) was 2.58 µM (inactive), the GI50 (OVCAR-3) was 2.33 µM (inactive) and the GI50 (OVCAR-4) was 4.54 µM (inactive). For the same molecule, the GI50 (OVCAR-5) was 14.2 µM (inactive), the GI50 (OVCAR-8) was 4.39 µM (inactive) and the GI50 (PC-3) was 5.77 µM (inactive). For the same molecule, the GI50 (RPMI-8226) was 7.52 µM (inactive), the GI50 (RXF 393) was 14.2 µM (inactive) and the GI50 (SF-268) was 12.3 µM (inactive). For the same molecule, the GI50 (SF-295) was 11.4 µM (inactive), the GI50 (SF-539) was 7.1 µM (inactive) and the GI50 (SK-MEL-28) was 12.2 µM (inactive). For the same molecule, the GI50 (SK-MEL-2) was 8.95 µM (inactive), the GI50 (SK-MEL-5) was 1.67 µM (inactive) and the GI50 (SK-OV-3) was 28.6 µM (inactive). For the same molecule, the GI50 (SN12C) was 6.47 µM (inactive), the GI50 (SNB-19) was 16 µM (inactive) and the GI50 (SNB-75) was 17.1 µM (inactive). For the same molecule, the GI50 (SW-620) was 3.3 µM (inactive), the GI50 (T47D) was 9.66 µM (inactive) and the GI50 (TK-10) was 14.4 µM (inactive). For the same molecule, the GI50 (U-251) was 11.9 µM (inactive), the GI50 (UACC-257) was 2.36 µM (inactive) and the GI50 (UACC-62) was 2.33 µM (inactive). For the same molecule, the GI50 (UO-31) was 12.4 µM (inactive).

For CC[C@@H]1CC[C@@H]2[C@H](CC[C@]3(C)[C@@H](O)CC[C@@H]23)[C@H]1C(=O)O, the GI50 (786-0) was > 100 µM (inactive), the GI50 (A498) was > 100 µM (inactive) and the GI50 (A549) was > 100 µM (inactive). For the same molecule, the GI50 (ACHN) was > 100 µM (inactive), the GI50 (BT-549) was > 100 µM (inactive) and the GI50 (CAKI-1) was > 100 µM (inactive). The GI50 (CCRF-CEM) was > 100 µM (inactive), the GI50 (COLO 205) was > 100 µM (inactive) and the GI50 (DU-145) was > 100 µM (inactive). For the same molecule, the GI50 (EKVX) was > 100 µM (inactive), the GI50 (HCC 2998) was > 100 µM (inactive) and the GI50 (HCT-116) was > 100 µM (inactive). The GI50 (HCT-15) was greater than 100 µM, the GI50 (HL-60) was > 100 µM (inactive) and the GI50 (HOP-62) was > 100 µM (inactive). For the same molecule, the GI50 (HOP-92) was > 100 µM (inactive), the GI50 (HT-29) was > 100 µM (inactive) and the GI50 (Hs-578T) was > 100 µM (inactive). The GI50 (IGROV-1) was > 100 µM (inactive), the GI50 (K562) was > 100 µM (inactive) and the GI50 (KM12) was > 100 µM (inactive). For the same molecule, the GI50 (LOX IMVI) was > 100 µM (inactive), the GI50 (M14) was > 100 µM (inactive) and the GI50 (MCF7) was > 100 µM (inactive). For the same molecule, the GI50 (MDA-MB-231) was > 100 µM (inactive), the GI50 (MDA-MB-435) was > 100 µM (inactive) and the GI50 (MDA-N) was > 100 µM (inactive). For the same molecule, the GI50 (MOLT-4) was > 100 µM (inactive), the GI50 (Malme-3M) was > 100 µM (inactive) and the GI50 (NCI-H226) was > 100 µM (inactive). For the same molecule, the GI50 (NCI-H23) was > 100 µM (inactive), the GI50 (NCI-H460) was > 100 µM (inactive) and the GI50 (NCI-H522) was > 100 µM (inactive). For the same molecule, the GI50 (NCI/ADR-RES) was > 100 µM (inactive), the GI50 (OVCAR-3) was > 100 µM (inactive) and the GI50 (OVCAR-4) was > 100 µM (inactive). For the same molecule, the GI50 (OVCAR-5) was > 100 µM (inactive), the GI50 (OVCAR-8) was > 100 µM (inactive) and the GI50 (PC-3) was > 100 µM (inactive). The GI50 (RPMI-8226) was > 100 µM (inactive), the GI50 (RXF 393) was > 100 µM (inactive) and the GI50 (SF-268) was > 100 µM (inactive). For the same molecule, the GI50 (SF-295) was > 100 µM (inactive), the GI50 (SF-539) was > 100 µM (inactive) and the GI50 (SK-MEL-28) was > 100 µM (inactive). The GI50 (SK-MEL-2) was > 100 µM (inactive), the GI50 (SK-MEL-5) was > 100 µM (inactive) and the GI50 (SK-OV-3) was > 100 µM (inactive). The GI50 (SN12C) was > 100 µM (inactive), the GI50 (SNB-19) was > 100 µM (inactive) and the GI50 (SNB-75) was 18.8 µM (inactive). The GI50 (SW-620) was > 100 µM (inactive), the GI50 (T47D) was > 100 µM (inactive) and the GI50 (TK-10) was > 100 µM (inactive). For the same molecule, the GI50 (U-251) was > 100 µM (inactive), the GI50 (UACC-257) was > 100 µM (inactive) and the GI50 (UACC-62) was > 100 µM (inactive). The GI50 (UO-31) was > 100 µM (inactive).
